A word on the melting point: it is the temperature of the solid-liquid transition.

The results in this text go back to a melting point compilation (Tetko et al.; mined from patent text by program, amines drawn as free bases though some values may be those of a salt).

`COc1cc(C)nc(-c2ccc(CBr)cc2)n1` yielded a melting point of 98 to 99 °C.
The molecule `Brc1cc(Br)cc(Cc2cccnc2)c1` had a melting point of 70 to 72 °C.
Regarding `CCCC(NS(=O)(=O)c1ccc(NC(C)=O)cc1)P(=O)(Oc1ccccc1)Oc1ccccc1` (centres undefined), the melting point lay within 183 to 186 °C.
The same measure for `Nc1ncnc2c1ncn2OC(CO)COCP(=O)(O)O` (centres undefined): 222 to 225 °C; for `CC1C(=O)Oc2cc(N3CCOCC3)c(Cl)cc21` (centres undefined): 103 to 105 °C.
The same measure for `CCCOCCOc1ccc(Oc2ccc3c(c2)C=C(C(=O)Nc2ccc(CN(C)C4CCOCC4)cc2)CCS3(=O)=O)cc1OCC`: 159 to 160 °C.
`CSC(=NCCN(C)C)NC#N` came in with a melting point of 94 to 95 °C.
`CCC1C(=O)N(CC)CCc2c1ccc(Nc1ncc(Cl)c(Nc3ccccc3C(=O)NC)n1)c2OC` (centres undefined) returned a melting point of 157 to 158 °C.
`O=C(O)c1nnc(-c2ccc(Cl)cc2)o1` gave a melting point of 277 to 284 °C.
In the case of `Cc1nnc2n1-c1sc(CCCN3CCOCC3)cc1C(c1ccccc1Cl)NC2` (centres undefined), the melting point was in the range of 135 to 138 °C.
For the molecule `CCOC(=O)c1cn(CC)c2nc(C)ccc2c1=O`, the melting point lay within 122 to 123 °C.
In turn, `O=[N+]([O-])c1ccc(Cl)c(C=Cc2nc3ccccc3o2)c1` yielded a melting point of 230 °C.
For `CC(=O)N[C@H]1CC[C@H](c2ccc(S(N)(=O)=O)cc2)CC1`, the melting point was 268 to 269 °C.
The same measure for `CC(C)C(NC(=O)N(C)Cc1ccccn1)C(=O)N(C(=O)C(NC(=O)N(C)Cc1nccs1)C(C)C)C(Cc1ccccc1)C(O)CCCc1ccccc1` (centres undefined): 158 to 160 °C; for `CC(C)Oc1nc2cc([N+](=O)[O-])c(-n3ccc(=O)cc3)cc2[nH]c1=NC#N`: greater than 300 °C.
Under `CC(C)(NC=O)c1ccc(I)cc1` stands 121 to 125 °C.
Take `NC(=O)c1cccc(Oc2ccccc2)c1`: the melting point fell in the range of 127 to 128 °C.
`CNC(CO)CCOc1cccc2ccccc12` (centres undefined) gave a melting point of 101 to 102 °C.
Molecule `O=c1n(CCCC2CCCCC2)nnn1-c1ccc(S(=O)(=O)Cl)cc1` displayed a melting point of 114 to 115 °C.
Under `N#Cc1ccc(C(=O)N=C=S)cc1` stands 87.5 to 88.5 °C.
Molecule `COc1cc(S(C)(=O)=O)ccc1-c1nc2cc3c(cc2[nH]1)N(C(C)=O)CC3(C)C` came in with a melting point of 223 to 225 °C.
Under `O=C(Nc1cc2ncc(CN3CCCC3)cc2cc1F)c1ccc(-c2ccc(Cl)cc2)cc1` stands 218 to 220 °C; under `Cc1cccc2nc(-c3cc(C(F)F)nn3-c3ccc(S(N)(=O)=O)cc3)sc12`, 264 to 265 °C.
Regarding `Cc1n[nH]c2c(C(=O)NC3(C4CC4)CC3)c(NC(=O)c3cc(C(F)(F)F)nn3-c3ncccc3Cl)c(Cl)cc12`, the melting point fell in the range of 228 to 229 °C.
Consider `COC(=O)CCCCc1csc(N)n1`, for which the melting point is 131 °C.
`Oc1ccc(-n2nc3c(c2Cl)CCCC3)c(F)c1` returned a melting point of 214 to 216 °C.
Turning to `N#Cc1cnn2c(C(F)(F)F)cc(-c3ccc(Cl)cc3Cl)nc12`, the melting point is 180 °C.
For `CCOC(=O)c1csnc1-c1ccc(C(F)(F)F)cc1`, the melting point is 63 to 64 °C.
On to `CC(C)(C)NS(=O)(=O)c1c(Cl)cccc1-c1ccccc1`, for which the melting point lay within 168 to 170 °C.
In turn, `CC(C)(C)OC(=O)N1CCn2c(-c3ccccc3)cc(C#N)c2C1` showed a melting point of 124 to 126 °C.
On to `O=[N+]([O-])c1cc(F)cc2c1OCCC2`, for which the melting point lay in the range of 48 to 50 °C.
As for `C=Cc1ccc2ccccc2c1-c1ccc(O)c(OC)c1`, the melting point fell in the range of 83 to 86 °C.
`CC(C)[C@H](NC(=O)/C=C/c1nccs1)C(=O)N[C@@H](Cc1ccccc1)[C@@H](O)[C@H](O)[C@H](Cc1ccccc1)NC(=O)[C@@H](NC(=O)/C=C/c1nccs1)C(C)C`: the melting point is greater than 260 °C.
Turning to `CCn1c(=O)c2[nH]c(/C=C/c3ccc(O)cc3)nc2n(CC)c1=O`, the melting point was greater than 270 °C.
